Source: ChEMBL document CHEMBL5244272 (Eur J Med Chem, 2021)
In brackets after ≈: the same amount, converted by molar mass.

Legend:
Assay type in all cases: functional, organism-based
Plasmodium falciparum [1] = test: Antimalarial activity against Plasmodium falciparum K1
Plasmodium falciparum [2] = test: Antimalarial activity against Plasmodium falciparum NF54
Plasmodium falciparum [3] = test: Antimalarial activity against Plasmodium falciparum Dd2
Plasmodium falciparum [4] = test: Antimalarial activity against Plasmodium falciparum W2
Plasmodium falciparum [5] = test: Antimalarial activity against Plasmodium falciparum D10
Plasmodium falciparum [6] = test: Antimalarial activity against Plasmodium falciparum D6

C[C@H]1[C@H](N2CCN(C(=O)c3ccc(C(F)(F)F)cc3)CC2)O[C@@H]2O[C@]3(C)CC[C@H]4[C@H](C)CC[C@@H]1[C@@]24OO3
IC50 (Plasmodium falciparum [1]): 3.5 nM
IC50 (Plasmodium falciparum [2]): 0.49 nM
IC50 (Plasmodium falciparum [3]): 13.2 nM

CC1(C)OOC2(OCCc3ccccc3)CCCC1C2 (configuration not stated)
IC50 (Plasmodium falciparum [4]): 250 nM
IC50 (Plasmodium falciparum [5]): 670 nM

C[C@H]1[C@@H](OCc2ccc(C(=O)N(CCNc3ccnc4cc(Cl)ccc34)CC(=O)NC3CCCCC3)cc2)O[C@@H]2O[C@]3(C)CC[C@H]4[C@H](C)CC[C@@H]1[C@@]24OO3
IC50 (Plasmodium falciparum [1]): 23 nM
IC50 (Plasmodium falciparum [5]): 26 nM

CC1(C)OOC2(OCCCC34CC5CC(CC(C5)C3)C4)CCCC1C2 (configuration not stated)
IC50 (Plasmodium falciparum [4]): 160 nM
IC50 (Plasmodium falciparum [5]): 240 nM

CC1=C(C(=O)c2ccccc2)O[C@@H]2O[C@]3(C)CC[C@H]4[C@H](C)CC[C@@H]1[C@@]24OO3
IC50 (Plasmodium falciparum [2]): 4.6 nM

CC1(C)OOC2(OCC34CC5CC(CC(C5)C3)C4)CCCC1C2 (configuration not stated)
IC50 (Plasmodium falciparum [4]): 270 nM
IC50 (Plasmodium falciparum [5]): 330 nM

CC1(C)OOC2(OCc3ccccc3)CCCC1C2 (configuration not stated)
IC50 (Plasmodium falciparum [4]): 430 nM
IC50 (Plasmodium falciparum [5]): 800 nM

C[C@H]1[C@H](N2CCN(C(=O)Nc3ccc(F)cc3)CC2)O[C@@H]2O[C@]3(C)CC[C@H]4[C@H](C)CC[C@@H]1[C@@]24OO3
IC50 (Plasmodium falciparum [1]): 0.85 nM
IC50 (Plasmodium falciparum [2]): 1.21 nM
IC50 (Plasmodium falciparum [3]): 9.2 nM

C[C@H]1[C@H](N2CCN([C@@H]3O[C@H](CO)[C@@H](O)[C@H](O)[C@H]3O)CC2)O[C@@H]2O[C@]3(C)CC[C@H]4[C@H](C)CC[C@@H]1[C@@]24OO3
IC50 (Plasmodium falciparum [4]): 0.71 nM
IC50 (Plasmodium falciparum [5]): 0.87 nM

C[C@H]1[C@H](N2CCN([C@@H]3O[C@H](CO)[C@H](O)[C@H]3O)CC2)O[C@@H]2O[C@]3(C)CC[C@H]4[C@H](C)CC[C@@H]1[C@@]24OO3
IC50 (Plasmodium falciparum [4]): 0.58 nM
IC50 (Plasmodium falciparum [5]): 0.66 nM

Cc1ccccc1COC12CCCC(C1)C(C)(C)OO2 (configuration not stated)
IC50 (Plasmodium falciparum [4]): 630 nM
IC50 (Plasmodium falciparum [5]): 740 nM

CCN(CC)Cc1ccc(C(C)O[C@H]2O[C@@H]3O[C@]4(C)CC[C@H]5[C@H](C)CC[C@@H]([C@H]2C)[C@@]35OO4)cc1O (some centres not stated)
IC50 (Plasmodium falciparum [1]): 0.18 ng/mL
IC50 (Plasmodium falciparum [2]): 0.36 ng/mL

C[C@@H]1CC[C@H]2[C@@H](C)C(=O)N(S(=O)(=O)c3ccc(C(F)(F)F)cc3)[C@@H]3O[C@]4(C)CC[C@@H]1[C@@]23OO4
IC50 (Plasmodium falciparum [1]): 3.15 nM
IC50 (Plasmodium falciparum [4]): 2.39 nM
IC50 (Plasmodium falciparum [2]): 2.04 nM

C[C@H]1[C@H](N2CCNCC2)O[C@@H]2O[C@]3(C)CC[C@H]4[C@H](C)CC[C@@H]1[C@@]24OO3
IC50 (Plasmodium falciparum [2]): 3.2 nM

CCCCC(=O)C1=C(C)[C@@H]2CC[C@@H](C)[C@@H]3CC[C@]4(C)OO[C@@]23[C@H](O1)O4
IC50 (Plasmodium falciparum [2]): 4.3 nM

CC1(C)OOC2(OCCC34CC5CC(CC(C5)C3)C4)CCCC1C2 (configuration not stated)
IC50 (Plasmodium falciparum [4]): 440 nM
IC50 (Plasmodium falciparum [5]): 580 nM

C[C@H]1[C@@H](OCc2ccc(C(=O)N(CCCNc3ccnc4cc(Cl)ccc34)CC(=O)NC3CCCCC3)cc2)O[C@@H]2O[C@]3(C)CC[C@H]4[C@H](C)CC[C@@H]1[C@@]24OO3
IC50 (Plasmodium falciparum [1]): 21 nM
IC50 (Plasmodium falciparum [5]): 35 nM

C[C@H]1[C@@H](OCc2ccc(C(=O)N(CCNc3ccnc4cc(Cl)ccc34)CC(=O)NC(C)(C)C)cc2)O[C@@H]2O[C@]3(C)CC[C@H]4[C@H](C)CC[C@@H]1[C@@]24OO3
IC50 (Plasmodium falciparum [1]): 19 nM
IC50 (Plasmodium falciparum [5]): 27 nM

CC1=C(C(O)(c2ccccc2)c2ccccc2)O[C@@H]2O[C@]3(C)CC[C@H]4[C@H](C)CC[C@@H]1[C@@]24OO3
IC50 (Plasmodium falciparum [2]): 4.5 nM

C[C@H]1[C@H](N2CCN(C(=O)Nc3ccccc3)CC2)O[C@@H]2O[C@]3(C)CC[C@H]4[C@H](C)CC[C@@H]1[C@@]24OO3
IC50 (Plasmodium falciparum [2]): 1.3 nM
IC50 (Plasmodium falciparum [3]): 7.5 nM

C[C@H]1[C@H](NS(N)(=O)=O)O[C@@H]2O[C@]3(C)CC[C@H]4[C@H](C)CC[C@@H]1[C@@]24OO3
IC50 (Plasmodium falciparum [1]): 1.79 nM
IC50 (Plasmodium falciparum [4]): 2.04 nM
IC50 (Plasmodium falciparum [2]): 3.1 nM

C[C@@H]1CC[C@H]2[C@@H](CCCc3cc(C(F)(F)F)cc(C(F)(F)F)c3)C(=O)O[C@@H]3O[C@]4(C)CC[C@@H]1[C@]32OO4
IC50 (Plasmodium falciparum [1]): 4.06 ng/mL
IC50 (Plasmodium falciparum [4]): 7.11 ng/mL
IC50 (Plasmodium falciparum [6]): 0.78 ng/mL (≈ 1.49 nM)

C[C@H]1[C@H](N2CCN([C@@H]3O[C@@H](C)[C@H](O)[C@@H](O)[C@H]3O)CC2)O[C@@H]2O[C@]3(C)CC[C@H]4[C@H](C)CC[C@@H]1[C@@]24OO3
IC50 (Plasmodium falciparum [4]): 0.74 nM
IC50 (Plasmodium falciparum [5]): 0.74 nM
